Measurements taken from PubChem BioAssay (NCI).
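Values below derive from 48-hour exposures of cells grown in 96-well plates, with endpoints linearly interpolated between the two concentrations bracketing the appropriate inhibition level. Definition used: TGI = concentration required for complete inhibition of growth.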

Legend:
Test in all cases: NCI anticancer screen, dose series, 48 h
SNB-75 CNS = tested on: SNB-75 CNS
OVCAR-4 ovarian = tested on: OVCAR-4 ovarian
A498 renal = tested on: A498 renal
UACC-257 melanoma = tested on: UACC-257 melanoma
HT29 colon = tested on: HT29 colon
CCRF-CEM leukemia = tested on: CCRF-CEM leukemia
MDA-MB-231 breast = tested on: MDA-MB-231 breast
SK-MEL-5 melanoma = tested on: SK-MEL-5 melanoma
U251 CNS = tested on: U251 CNS
LOX IMVI melanoma = tested on: LOX IMVI melanoma

| SMILES | TGI (SNB-75 CNS) [µM] | TGI (OVCAR-4 ovarian) [µM] | TGI (A498 renal) [µM] | TGI (UACC-257 melanoma) [µM] | TGI (HT29 colon) [µM] | TGI (CCRF-CEM leukemia) [µM] | TGI (MDA-MB-231 breast) [µM] | TGI (SK-MEL-5 melanoma) [µM] | TGI (U251 CNS) [µM] | TGI (LOX IMVI melanoma) [µM] |
| --- | --- | --- | --- | --- | --- | --- | --- | --- | --- | --- |
| CCCc1c(OC)c(O)c2c(=O)cc(OC)c3c4c(OC)cc(=O)c5c(O)c(OC)c(CCC)c(c1c23)c54 | 23.6 | 32.7 | 31 | > 100 | 17.9 | 50.1 | 8.54 | 11.5 | 6.41 | 4.91 |
| C/C(=C/CC[C@](C)(OC1OC(CO)C(O)C(O)C1OC1OC(C)C(O)C(O)C1O)[C@H]1CC[C@]2(C)[C@@H]1CC[C@@H]1[C@@]3(C)CC[C@H](O)C(C)(C)[C@@H]3C[C@H](O)[C@]12C)CO (stereo not given in full) | > 100 | > 100 | > 100 | > 100 | > 100 | > 100 | > 100 | > 100 | > 100 | > 100 |
| NC(=O)NC1=NCCC(=O)N1CCc1c[nH]c2ccccc12 | 44.5 | 52.9 | 46.1 | 34.6 | 47.3 | 37.9 | 29.4 | 34.2 | > 100 | 26.8 |
| c1ccc2c3c(c(N4CCNCC4)nc2c1)CCCC3 | 27 | 31.5 | 27.6 | 20.6 | 28.3 | 31.4 | 27.4 | 24.3 | 26.2 | 27.2 |
| Nc1c(Cl)ncnc1NCC1(CO)CCC1 | > 100 | > 100 | > 100 | > 100 | > 100 | > 100 | > 100 | > 100 | > 100 | > 100 |
| O=c1[nH]/c(=C/c2cccs2)c(=O)[nH]/c1=C/c1ccc(OCc2ccccc2)cn1 | 2.66 | 45.5 | 1.15 | > 75 | > 100 | 4.34 | > 48.9 | > 62.6 | 23.8 | > 100 |
| CCCCOP(=O)(OCCCC)C(NS(=O)(=O)c1ccccc1)(C(=O)OCC)C(F)(F)F (stereo not given) | 78.1 | 94.9 | 76.1 | 79.3 | > 100 | 72.5 | 36.7 | 33.9 | 65 | 96.9 |
| Cc1ccc(N=c2oc3c(ccc4ccccc43)nc2Nc2ccc(C)cc2)cc1 | > 100 | > 100 | > 100 | > 100 | > 100 | > 100 | > 100 | > 100 | > 100 | > 100 |
| Cc1cc([C@H](C#N)c2nc3ccccc3s2)nc(Cl)n1 | 6.54 | > 100 | 31.3 | 22.4 | 21.4 | > 100 | 11 | 45.9 | 12.4 | 10.4 |
| COC(=O)/C=C1\C(=O)N(C(C)=O)c2ccccc21 | 28.4 | 17.5 | 20 | 22.2 | 20.6 | 10.1 | 21.3 | 27.8 | 37.2 | 18.7 |
| CCOC(=O)n1c2ccccc2c2c(O)c(OC)c3c(c21)C(=O)NC3=O | > 100 | > 100 | > 100 | > 100 | 84.3 | > 100 | 56.4 | > 100 | > 100 | 38.9 |
| O=C(O)C(C1NCCS1)N1Cc2ccccc2C1 (stereo not given) | > 100 | > 100 | > 100 | > 100 | > 100 | > 100 | > 100 | > 100 | > 100 | > 100 |
| Cc1cc(C)c2c(=O)n(CC(O)CN3CCN(c4ncccn4)CC3)sc2n1 (stereo not given) | 28.4 | 37.3 | 31.1 | 30.4 | 29.6 | > 100 | 31.3 | 35.5 | 31.7 | 33.7 |
